Experimental data as given in patent US6228872A, “Neurotrophic diamide and carbamate agents” (Bristol-Myers Squibb Company, priority 1999, dated 2001).

Target: FKBP12 (Homo sapiens, UniProt P62942)
Experiment: FKBP12 Rotamase Inhibition Assay
Type: biochemical
Settings: Table 1; 1 μM (values marked *); read-out: % inhib. at 1 μM*
Method: FKBP12 Rotamase Inhibition Assay
The rotamase activity of FKBP-12 was measured by an adaptation of the assay described by Kofron et al. (Biochemistry, 30, pp. 6127-6134 (1991)). The assay was carried out at 4° C. with 1 mg chymotrypsin/mL of assay with succinyl-Ala-Leu-Pro-Phe-p-nitroanilide as the substrate. Chymotrypsin rapidly hydrolyzes the peptide bond on the C-terminal side of the Phe of the trans form of the peptide and releases the chromogenic p-nitroaniline. The rate of the reaction is controlled by the rate of conversion of the cis form of the peptide to the trans-form, the reaction catalyzed by FKBP12. The apparent Ki values for inhibition of the rotamase activity were determined by measuring decreases in the first order rate constant of the reaction catalyzed by FKBP12 as a function of the concentrations of the compounds described herein. Ki is the concentration of the compound that causes 50 percent inhibition of rotamase activity which is indicative of neurite outgrowth activity.

Sequence of FKBP12 (P62942 whole entry, species assumed): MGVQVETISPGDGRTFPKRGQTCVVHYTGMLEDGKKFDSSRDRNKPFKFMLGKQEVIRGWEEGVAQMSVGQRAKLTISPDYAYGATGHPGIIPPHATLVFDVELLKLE

Which inhibition at 1 µM does the source give for `COc1cc(C(F)(F)C(=O)N2CCC[C@H]2COC(=O)N(Cc2ccccc2)Cc2ccccc2)cc(OC)c1OC` [Example 24, N-(3,4,5-Trimethoxyphenyl)-difluoroacetyl-L-pyrrolidinylmethyl-[N',N'-dibenzylamino]carbamate] here?
The inhibition at 1 µM was 34%.

With `COc1cc(C(F)(F)C(=O)N2CCC[C@H]2COC(=O)N(CCc2ccccc2)CCc2c[nH]c3ccccc23)cc(OC)c1OC` [Example 25, N-(3,4,5-Trimethoxyphenyl)-difluoroacetyl-L-pyrrolidinylmethyi-[N',N'-2-(3-indolyl)ethyl-2-phenylethylamino]carbamate] as the molecule, how does the inhibition at 1 µM read?
Its inhibition at 1 µM is 11%.

Same assay, conditions: Table 1; 10 μM; read-out: % inhib. at 10 μM

For `COc1cc(C(=O)C(=O)N2CCC[C@H]2COC(=O)NCc2cccnc2)cc(OC)c1OC` [Example 8, N-(3,4,5-Trimethoxyphenyl)oxalyl-L-pyrrolidinylmethyl-[N'-3-pyridylmethylamino]carbamate], which inhibition at 10 µM is on record?
The inhibition at 10 µM was 11%.

For `CC(C)(C)C(=O)C(=O)N1CCC[C@H]1COC(=O)NCCCc1ccccc1` [Example 6, N-Trimethylpyruvyl-L-pyrrolidinylmethyl-[N'-3-phenylpropylamino]carbamate], which inhibition at 10 µM is on record?
Its inhibition at 10 µM is 32%.

For `CC(C)(C)C(=O)C(=O)N1CCC[C@H]1COC(=O)NCc1cccnc1` [Example 4, N-Trimethylpyruvyl-L-pyrrolidinylmethyl-[N'-3-pyridylmethylamino]carbamate], which inhibition at 10 µM is on record?
Its inhibition at 10 µM is 12%.

Same assay, conditions: Table 2; 1 μM (values marked *); read-out: % inhib. at 1 μM*

How did the inhibition at 1 µM turn out when `COc1cc(C(F)(F)C(=O)N2CCCCC2COC(=O)N(CCCc2cccnc2)CCc2ccccc2)cc(OC)c1OC` (racemic) [Example 42, N-(3,4,5-Trimethoxyphenyl)-difluoroacetyl-(±)-piperidinylmethyl-[N',N'-3-(3-pyridyl)propyl-2-phenylethylamino]carbamate] was run?
The inhibition at 1 µM was 1%.

Which inhibition at 1 µM does the source give for `COc1cc(C(F)(F)C(=O)N2CCC[C@H]2COC(=O)N(CCCCc2cccnc2)CCCc2ccccc2)cc(OC)c1OC` [Example 29, N-(3,4,5-Trimethoxyphenyl)-difluoroacetyl-L-pyrrolidinylmethyl-[N',N'-4-(3-pyridyl)butyl-3-phenylpropylamino]carbamate] here?
Its inhibition at 1 µM is 80%.

Which inhibition at 1 µM does the source give for `COc1cc(C(=O)C(=O)N2CCC[C@H]2COC(=O)N(CCCCc2cccnc2)Cc2ccccc2)cc(OC)c1OC` [Example 16, N-(3,4,5-Trimethoxyphenyl)oxalyl-L-pyrrolidinylmethyl-[N',N'-4-(^3-pyridyl)butyl-benzylamino]carbamate] here?
Its inhibition at 1 µM is 18%.

How did the inhibition at 1 µM turn out when `COc1cc(C(F)(F)C(=O)N2CCC[C@H]2COC(=O)N(CCCCc2cccnc2)Cc2ccccc2)cc(OC)c1OC` [Example 31, N-(3,4,5-Trimethoxyphenyl)-difluoroacetyl-L-pyrrolidinylmethyl-[N',N'-4-(3-pyridyl)butyl-benzylamino]carbamate] was run?
The inhibition at 1 µM was 63%.

For `COc1cc(C(F)(F)C(=O)N2CCCCC2COC(=O)N(CCCc2cccnc2)Cc2ccccc2)cc(OC)c1OC` (racemic) [Example 41, N-(3,4,5-Trimethoxyphenyl)-difluoroacetyl-(±)-piperidinylmethyl-[N',N'-3-(3-pyridyl)propyl-benzylamino]carbamate], which inhibition at 1 µM is on record?
The inhibition at 1 µM was 11%.

Same assay, conditions: Table 2; 10 μM; read-out: % inhib. at 10 μM

For `COc1cc(C(=O)C(=O)N2CCCCC2COC(=O)N(CCCc2ccccc2)CCCc2cccnc2)cc(OC)c1OC` (racemic) [Example 19, N-(3,4,5-Trimethoxyphenyl)oxalyl-(±)-piperidinylmethyl-[N',N'-3-(3-pyridyl)-propyl-3-phenylpropylamino]carbamate], which inhibition at 10 µM is on record?
Its inhibition at 10 µM is 11%.

Which inhibition at 10 µM does the source give for `COc1cc(C(=O)C(=O)N2CCC[C@H]2COC(=O)N(CCCc2cccnc2)Cc2ccccc2)cc(OC)c1OC` [Example 13, N-(3,4,5-Trimethoxyphenyl)oxalyl-L-pyrrolidinylmethyl-[N',N'-3-(3-pyridyl)propyl-benzylamino]carbamate] here?
The inhibition at 10 µM was 79%.

How did the inhibition at 10 µM turn out when `COc1cc(C(F)(F)C(=O)N2CCC[C@H]2COC(=O)N(CCCc2cccnc2)CCc2ccccc2)cc(OC)c1OC` [Example 27, N-(3,4,5-Trimethoxyphenyl)-difluoroacetyl-L-pyrrolidinylmethyl-[N',N'-3-(3-pyridyl)propyl-2-phenylethylamino]carbamate] was run?
The inhibition at 10 µM was 97%.

How did the inhibition at 10 µM turn out when `COc1cc(C(=O)C(=O)N2CCC[C@H]2COC(=O)N(CCCc2ccccc2)CCCc2cccnc2)cc(OC)c1OC` [Example 7, N-(3,4,5-Trimethoxyphenyl)oxalyl-L-pyrrolidinylmethyl-[N',N'-3-(3-pyridyl)propyl-3-phenylpropylamino]carbamate] was run?
Its inhibition at 10 µM is 100%.

Same assay, conditions: Table 2; apparent Ki, 4° C., substrate succinyl-Ala-Leu-Pro-Phe-p-nitroanilide

With `COc1cc(C(F)(F)C(=O)N2CCC[C@H]2COC(=O)N(CCCc2cccnc2)CCc2ccccc2)cc(OC)c1OC` [Example 27, N-(3,4,5-Trimethoxyphenyl)-difluoroacetyl-L-pyrrolidinylmethyl-[N',N'-3-(3-pyridyl)propyl-2-phenylethylamino]carbamate] as the molecule, how does the Ki read?
The Ki was 234 nM.

With `COc1cc(C(F)(F)C(=O)N2CCC[C@H]2COC(=O)N(CCCCc2cccnc2)Cc2ccccc2)cc(OC)c1OC` [Example 31, N-(3,4,5-Trimethoxyphenyl)-difluoroacetyl-L-pyrrolidinylmethyl-[N',N'-4-(3-pyridyl)butyl-benzylamino]carbamate] as the molecule, how does the Ki read?
The Ki was 686 nM.

`COc1cc(C(=O)C(=O)N2CCC[C@H]2COC(=O)N(CCCc2ccccc2)CCCc2cccnc2)cc(OC)c1OC` [Example 7, N-(3,4,5-Trimethoxyphenyl)oxalyl-L-pyrrolidinylmethyl-[N',N'-3-(3-pyridyl)propyl-3-phenylpropylamino]carbamate] was tested. Which Ki did it give?
Its Ki is 447 nM.

Same assay, conditions: Table 3; 1 μM; read-out: % rotamase inhib. at 1 μM

`COc1cc(CCCN(CCCc2cccnc2)C(=O)OC[C@@H]2CCCN2C(=O)C(F)(F)c2cc(OC)c(OC)c(OC)c2)cc(OC)c1OC` [Example 39, N-(3,4,5-Trimethoxyphenyl)-difluoroacetyl-L-pyrrolidinylmethyl-[N',N'-3-(3-pyridyl)propyl-3-(3,4,5-trimethoxyphenyl)propylamino]carbamate] was tested. Which inhibition at 1 µM did it give?
The inhibition at 1 µM was 92%.

Which inhibition at 1 µM does the source give for `COc1cccc(CCCN(CCCc2cccnc2)C(=O)OC[C@@H]2CCCN2C(=O)C(F)(F)c2cc(OC)c(OC)c(OC)c2)c1` [Example 37, N-(3,4,5-Trimethoxyphenyl)-difluoroacetyl-L-pyrrolidinylmethyl-[N',N'-3-(3-pyridyl)propyl-3-(3-methoxyphenyl)propylamino]carbamate] here?
The inhibition at 1 µM was 93%.

Which inhibition at 1 µM does the source give for `COc1ccc(CCCCN(CCCc2cccnc2)C(=O)OC[C@@H]2CCCN2C(=O)C(F)(F)c2cc(OC)c(OC)c(OC)c2)cc1OC` [Example 40, N-(3,4,5-Trimethoxyphenyl)-difluoroacetyl-L-pyrrolidinylmethyl-[N',N'-3-(3-pyridyl)propyl-4-(3,4-dimethoxyphenyl)butylamino]carbamate] here?
The inhibition at 1 µM was 98%.

Which inhibition at 1 µM does the source give for `COc1cc(C(F)(F)C(=O)N2CCC[C@H]2COC(=O)N(CCCc2cccnc2)CCc2cccc(C(F)(F)F)c2)cc(OC)c1OC` [Example 34, N-(3,4,5-Trimethoxyphenyl)-difluoroacetyl-L-pyrrolidinylmethyl-[N',N'-3-(3-pyridyl)propyl-2-(3-trifluoromethylphenyl)ethylamino]carbamate] here?
The inhibition at 1 µM was 96%.

How did the inhibition at 1 µM turn out when `COc1cccc(CCN(CCCc2cccnc2)C(=O)OC[C@@H]2CCCN2C(=O)C(F)(F)c2cc(OC)c(OC)c(OC)c2)c1` [Example 32, N-(3,4,5-Trimethoxyphenyl)-difluoroacetyl-L-pyrrolidinylmethyl-[N',N'-3-(3-pyridyl)propyl-2-(3-methoxyphenyl)ethylamino]carbamate] was run?
Its inhibition at 1 µM is 93%.

With `COc1ccc(CCN(CCCc2cccnc2)C(=O)OC[C@@H]2CCCN2C(=O)C(F)(F)c2cc(OC)c(OC)c(OC)c2)cc1OC` [Example 33] as the molecule, how does the inhibition at 1 µM read?
Its inhibition at 1 µM is 96%.

Which inhibition at 1 µM does the source give for `COc1cc(C(F)(F)C(=O)N2CCC[C@H]2COC(=O)N(CCCc2ccc(C(=O)O)cc2)CCCc2cccnc2)cc(OC)c1OC` [Example 35, N-(3,4,5-Trimethoxyphenyl)-difluoroacetyl-L-pyrrolidinylmethyl-[N',N'-3-(3-pyridyl)propyl-3-(4-carboxyphenyl)propylamino]carbamate] here?
The inhibition at 1 µM was 94%.

Same assay, conditions: Table 4; 1 μM; read-out: % rotamase inhib. at 1 μM

For `COc1cc(C(=O)C(=O)N2CCCC[C@H]2CCC(=O)N(CCCc2ccccc2)CCCc2cccnc2)cc(OC)c1OC` [Example 20], which inhibition at 1 µM is on record?
Its inhibition at 1 µM is 0%.

For `COc1cc(C(F)(F)C(=O)N2CCCC[C@H]2CCC(=O)N(CCCc2ccccc2)CCCc2cccnc2)cc(OC)c1OC` [Example 44, N,N-(3-Phenylpropyl)-3-(3-pyridyl)propyl-2-[(S)-N'-(3,4,5-Trimethoxyphenyl)-difluoroacetyl-2-piperidinyl]propionamide], which inhibition at 1 µM is on record?
The inhibition at 1 µM was 0%.
